Tests used:
[1] = target: Capsid scaffolding protein (Human cytomegalovirus (strain AD169) (HHV-5) (Human herpesvirus 5), UniProt P16753); experiment: Concentration required to inhibit the mutant alpha-Ala HCMV protease by 50% was determined
Human betaherpesvirus 5 [2] = experiment: Compound was evaluated for antiviral activity measured as percentage inhibition determined at a concentration of 100 (uM) against mutant alpha-Ala HCMV protease; type: functional
[3] = Compound was tested for its stability by HPLC method, value expressed as half life; type: physicochemical
Homo sapiens = species on record: Homo sapiens; experiment: Concentration required to inhibit the mammalian elastase by 50% was determined; type: functional, organism-based
Human betaherpesvirus 5 [4] = experiment: Binding affinity towards mutant alpha-Ala HCMV protease was determined; type: functional
Chymotrypsinogen A = Chymotrypsinogen A (Bos taurus, UniProt P00766); experiment: Concentration required to inhibit the mammalian Chymotrypsinogen by 50% was determined
Acetylcholinesterase = Acetylcholinesterase (Homo sapiens, UniProt P22303); experiment: Concentration required to inhibit the mammalian Acetylcholinesterase by 50% was determined
Human betaherpesvirus 5 [5] = experiment: Compound was evaluated for antiviral activity measured as percentage inhibition determined at a concentration of 500 (uM) against mutant alpha-Ala HCMV protease; type: functional
Human betaherpesvirus 5 [6] = experiment: The compound was evaluated for antiviral activity measured as percentage inhibition determined at a concentration of 100 (uM) against mutant alpha-Ala HCMV protease; type: functional
Human betaherpesvirus 5 [7] = experiment: 50 % concentration required to inhibit the mutant alpha-Ala HCMV protease was determined; type: functional

Sequence of Capsid scaffolding protein (P16753 1-256 limits assumed): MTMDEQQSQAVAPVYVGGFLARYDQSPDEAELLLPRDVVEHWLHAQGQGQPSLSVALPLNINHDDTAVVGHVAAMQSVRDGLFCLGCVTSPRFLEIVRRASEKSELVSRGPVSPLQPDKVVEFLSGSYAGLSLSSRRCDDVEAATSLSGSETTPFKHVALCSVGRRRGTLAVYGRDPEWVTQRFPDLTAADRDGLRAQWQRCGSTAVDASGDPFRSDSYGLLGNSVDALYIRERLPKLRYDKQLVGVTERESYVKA
Sequence of Acetylcholinesterase (P22303 whole entry): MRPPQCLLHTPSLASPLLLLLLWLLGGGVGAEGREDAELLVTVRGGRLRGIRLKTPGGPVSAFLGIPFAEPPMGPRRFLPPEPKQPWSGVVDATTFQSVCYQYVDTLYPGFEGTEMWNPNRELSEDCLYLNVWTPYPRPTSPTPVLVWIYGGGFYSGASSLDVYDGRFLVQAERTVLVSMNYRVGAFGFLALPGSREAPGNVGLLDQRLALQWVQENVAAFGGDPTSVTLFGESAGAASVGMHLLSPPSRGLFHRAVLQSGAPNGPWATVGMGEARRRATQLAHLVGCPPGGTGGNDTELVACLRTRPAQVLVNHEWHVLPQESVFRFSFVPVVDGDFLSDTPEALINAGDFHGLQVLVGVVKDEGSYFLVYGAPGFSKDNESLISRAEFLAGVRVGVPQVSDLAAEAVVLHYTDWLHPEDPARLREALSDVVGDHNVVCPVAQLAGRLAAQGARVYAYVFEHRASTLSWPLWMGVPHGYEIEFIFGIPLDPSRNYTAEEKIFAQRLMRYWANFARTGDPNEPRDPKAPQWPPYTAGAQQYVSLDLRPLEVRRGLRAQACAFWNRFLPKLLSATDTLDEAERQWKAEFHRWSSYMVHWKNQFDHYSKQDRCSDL

SMILES	IC50 [1]	Inhibition (Human betaherpesvirus 5 [2])	other results
CC(=O)O[C@@H]1[C@H](C)C(=O)N1C(=O)Nc1ccccc1	> 100 µM		
O=C(O)c1ccc(O[C@@H]2CC(=O)N2C(=O)Nc2ccccc2)cc1	> 100 µM	43%	
C[C@H]1C(=O)N(C(=O)NCc2ccccc2)[C@@H]1Oc1ccc(C(=O)O)cc1	20 µM		half-life [3]: 3.1 h; IC50 (Homo sapiens): 3.9 µM; Ki (Human betaherpesvirus 5 [4]): 5.6 µM; IC50 (Chymotrypsinogen A): 1.6 µM; IC50 (Acetylcholinesterase): > 100 µM
C[C@@H]1C(=O)N(C(=O)NCc2ccccc2)[C@@H]1Oc1ccc(C(=O)C(C)(C)C)cc1	> 100 µM	35%	
CC(=O)O[C@@H]1CC(=O)N1C(=O)NCc1ccccc1	42 µM		half-life [3]: 0.53 h; Ki (Human betaherpesvirus 5 [4]): 20 µM
CCC1(CC)C(=O)N(C(=O)NC)[C@@H]1OC(C)=O	> 100 µM	5%	
CCCCNC(=O)N1C(=O)C[C@H]1OC(C)=O	68 µM		Ki (Human betaherpesvirus 5 [4]): 26 µM
CC(C)NC(=O)N1C(=O)C[C@H]1Oc1ccc(C(=O)O)cc1	100 µM	8%	
C[C@H]1C(=O)N(C(=O)NCc2ccccc2)[C@@H]1Oc1ccc(C(=O)C(C)(C)C)cc1	17 µM		half-life [3]: 22.8 h; IC50 (Homo sapiens): > 100 µM; Ki (Human betaherpesvirus 5 [4]): 5.7 µM; IC50 (Chymotrypsinogen A): > 100 µM; IC50 (Acetylcholinesterase): > 100 µM
CC[C@H]1C(=O)N(C(=O)NCc2ccccc2)[C@@H]1Oc1ccc(C(=O)O)cc1	50 µM		half-life [3]: 7.6 h; Ki (Human betaherpesvirus 5 [4]): 8.3 µM
CC(=O)OC1CC(=O)N1 (stereo not given)			Inhibition (Human betaherpesvirus 5 [5]): 0%
CC[C@@H]1C(=O)N(C(=O)NCc2ccccc2)[C@@H]1Oc1ccc(C(=O)O)cc1	> 100 µM		Inhibition (Human betaherpesvirus 5 [6]): 25%
CC(=O)O[C@@H]1[C@@H](C)C(=O)N1C(=O)Nc1ccccc1	86 µM		
CC(=O)O[C@@H]1CC(=O)N1C(=O)NC(C)C	> 100 µM	30%	
CCNC(=O)N1C(=O)C[C@H]1OC(C)=O	> 100 µM	36%	
C[C@@H]1C(=O)N(C(=O)NCc2ccccc2)[C@@H]1Oc1ccc(C(=O)O)cc1	> 100 µM	12%	
CNC(=O)N1CCC1=O			Inhibition (Human betaherpesvirus 5 [5]): 7.7%
CC(=O)O[C@H]1N(C(=O)NCc2ccccc2)C(=O)C1(C)C	> 100 µM	6%	
O=C(O)c1ccc(O[C@@H]2CC(=O)N2C(=O)NCc2ccccc2)cc1	> 100 µM	48%	half-life [3]: 1.4 h
CNC(=O)N1C(=O)C[C@H]1OC(C)=O		29%	Inhibition (Human betaherpesvirus 5 [5]): 68.5%; IC50 (Human betaherpesvirus 5 [7]): > 100 µM
CC(=O)O[C@@H]1[C@@H](C)C(=O)N1C(=O)NCc1ccccc1	6.5 µM		
CC(=O)O[C@@H]1[C@H](C)C(=O)N1C(=O)NCc1ccccc1	27 µM		

From ChEMBL document CHEMBL1130748, “Design and synthesis of monocyclic beta-lactams as mechanism-based inhibitors of human cytomegalovirus protease” (Bioorg Med Chem Lett, 1998)
